One compound from article PMC6934184, “Selective DNA-PKcs inhibition extends the therapeutic index of localized radiotherapy and chemotherapy” (The Journal of Clinical Investigation, 2019) can be followed below.

SMILES strings stand for the structures.

This test concerns the target T1, TAOK3 (JIK) (Homo sapiens, UniProt Q9H2K8).
T1 construct: purchased Thermo Fisher Scientific (Life Technologies) SelectScreen
Nature of the test: SelectScreen LanthaScreen. The conditions noted are these: read-out: % displacement. The test is classed as binding. The method, boiled down:
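SelectScreen broad panel; activity (Z'LYTE, Adapta) plus binding formats. ATP: Km app for CSF1R Z'LYTE; 10 for CAMK1 Adapta. Readout = % per kinase.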
A general note: Time-resolved FRET reads energy transfer from a long-lived donor to a nearby acceptor.

T1 sequence (Q9H2K8 whole entry): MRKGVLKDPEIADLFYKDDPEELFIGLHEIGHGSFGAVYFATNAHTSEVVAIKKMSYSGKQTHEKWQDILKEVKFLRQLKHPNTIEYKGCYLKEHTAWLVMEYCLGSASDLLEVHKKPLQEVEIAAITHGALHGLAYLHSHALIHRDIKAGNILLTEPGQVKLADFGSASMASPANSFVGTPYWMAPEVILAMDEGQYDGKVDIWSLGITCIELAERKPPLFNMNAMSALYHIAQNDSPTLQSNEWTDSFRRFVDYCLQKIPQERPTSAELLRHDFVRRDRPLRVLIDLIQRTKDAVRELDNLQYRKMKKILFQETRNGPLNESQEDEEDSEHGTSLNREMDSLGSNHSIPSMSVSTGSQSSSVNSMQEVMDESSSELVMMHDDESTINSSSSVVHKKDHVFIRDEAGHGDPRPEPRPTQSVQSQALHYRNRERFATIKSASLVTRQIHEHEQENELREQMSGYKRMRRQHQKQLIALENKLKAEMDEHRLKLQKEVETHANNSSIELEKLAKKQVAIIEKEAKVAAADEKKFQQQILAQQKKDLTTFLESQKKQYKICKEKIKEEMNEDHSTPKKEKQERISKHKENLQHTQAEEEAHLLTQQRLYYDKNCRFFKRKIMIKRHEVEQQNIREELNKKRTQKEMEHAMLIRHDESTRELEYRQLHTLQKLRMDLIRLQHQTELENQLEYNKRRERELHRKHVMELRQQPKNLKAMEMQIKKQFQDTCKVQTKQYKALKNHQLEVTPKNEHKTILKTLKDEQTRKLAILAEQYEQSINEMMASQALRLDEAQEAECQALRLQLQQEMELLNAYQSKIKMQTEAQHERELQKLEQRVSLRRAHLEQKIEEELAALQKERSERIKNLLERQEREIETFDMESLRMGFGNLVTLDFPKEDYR

As to `CN(C(=O)CN1CCOCC1)c1ccc2sc3c(-c4cccc5c(=O)cc(N6CC7CCC(C6)O7)oc45)cccc3c2c1` [NU5455], the inhibition at 1 µM amounted to 4.2%.
